From the kinase profiling compilation of Christmann-Franck et al. (2016)

Columns and labels:
Assay in all cases: KINOMEscan competition binding
Details in all cases: compound 10.0 µM
NEK2 (human) = NEK2 (human) (UniProt P51955)
TXK (human) = TXK (human) (UniProt P42681)
TAOK1 (human) = TAOK1 (human) (UniProt Q7L7X3)
MAPK3 (human) = MAPK3 (human) (UniProt P27361)
FRK (human) = FRK (human) (UniProt P42685)
GRK7 (human) = GRK7 (human) (UniProt Q8WTQ7)
RPS6KA2 KD2 (human) = RPS6KA2 KD2 (human) (UniProt Q15349)
FGFR2 (human) = FGFR2 (human) (UniProt P21802)
FGR (human) = FGR (human) (UniProt P09769)
ROCK2 (human) = ROCK2 (human) (UniProt O75116)
MST1R (human) = MST1R (human) (UniProt Q04912)
PTK2B (human) = PTK2B (human) (UniProt Q14289)
MAST1 (human) = MAST1 (human) (UniProt Q9Y2H9)
MAP4K4 (human) = MAP4K4 (human) (UniProt O95819)
TAOK2 (human) = TAOK2 (human) (UniProt Q9UL54)
MUSK (human) = MUSK (human) (UniProt O15146)
Sequence of MUSK (human) (O15146 whole entry, looked up): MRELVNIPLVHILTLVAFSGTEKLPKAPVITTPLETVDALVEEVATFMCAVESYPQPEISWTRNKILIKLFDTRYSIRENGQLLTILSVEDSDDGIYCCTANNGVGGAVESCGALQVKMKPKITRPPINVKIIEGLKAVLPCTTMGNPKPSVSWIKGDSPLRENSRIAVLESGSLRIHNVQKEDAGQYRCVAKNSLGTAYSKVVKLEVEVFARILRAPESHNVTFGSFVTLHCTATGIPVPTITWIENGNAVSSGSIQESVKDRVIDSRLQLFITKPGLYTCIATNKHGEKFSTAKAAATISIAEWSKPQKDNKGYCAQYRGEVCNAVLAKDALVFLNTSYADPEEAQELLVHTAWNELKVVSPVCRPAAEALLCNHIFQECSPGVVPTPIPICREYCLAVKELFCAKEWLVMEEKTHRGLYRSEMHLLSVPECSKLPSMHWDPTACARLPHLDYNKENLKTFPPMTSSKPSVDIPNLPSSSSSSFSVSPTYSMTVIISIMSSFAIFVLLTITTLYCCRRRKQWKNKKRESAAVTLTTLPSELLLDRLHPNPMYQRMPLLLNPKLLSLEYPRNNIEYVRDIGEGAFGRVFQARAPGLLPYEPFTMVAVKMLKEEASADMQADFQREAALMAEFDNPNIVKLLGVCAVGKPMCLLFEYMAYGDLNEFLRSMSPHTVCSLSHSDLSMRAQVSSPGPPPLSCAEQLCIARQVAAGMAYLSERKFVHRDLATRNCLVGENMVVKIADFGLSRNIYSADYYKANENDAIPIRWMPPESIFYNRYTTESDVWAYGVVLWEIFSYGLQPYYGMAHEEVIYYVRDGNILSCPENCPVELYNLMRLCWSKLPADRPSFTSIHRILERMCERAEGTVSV

PI4KB (human) = PI4KB (human) (UniProt Q9UBF8)
TRPM6 (human) = TRPM6 (human) (UniProt Q9BX84)
Sequence of TRPM6 (human) (Q9BX84 whole entry, looked up): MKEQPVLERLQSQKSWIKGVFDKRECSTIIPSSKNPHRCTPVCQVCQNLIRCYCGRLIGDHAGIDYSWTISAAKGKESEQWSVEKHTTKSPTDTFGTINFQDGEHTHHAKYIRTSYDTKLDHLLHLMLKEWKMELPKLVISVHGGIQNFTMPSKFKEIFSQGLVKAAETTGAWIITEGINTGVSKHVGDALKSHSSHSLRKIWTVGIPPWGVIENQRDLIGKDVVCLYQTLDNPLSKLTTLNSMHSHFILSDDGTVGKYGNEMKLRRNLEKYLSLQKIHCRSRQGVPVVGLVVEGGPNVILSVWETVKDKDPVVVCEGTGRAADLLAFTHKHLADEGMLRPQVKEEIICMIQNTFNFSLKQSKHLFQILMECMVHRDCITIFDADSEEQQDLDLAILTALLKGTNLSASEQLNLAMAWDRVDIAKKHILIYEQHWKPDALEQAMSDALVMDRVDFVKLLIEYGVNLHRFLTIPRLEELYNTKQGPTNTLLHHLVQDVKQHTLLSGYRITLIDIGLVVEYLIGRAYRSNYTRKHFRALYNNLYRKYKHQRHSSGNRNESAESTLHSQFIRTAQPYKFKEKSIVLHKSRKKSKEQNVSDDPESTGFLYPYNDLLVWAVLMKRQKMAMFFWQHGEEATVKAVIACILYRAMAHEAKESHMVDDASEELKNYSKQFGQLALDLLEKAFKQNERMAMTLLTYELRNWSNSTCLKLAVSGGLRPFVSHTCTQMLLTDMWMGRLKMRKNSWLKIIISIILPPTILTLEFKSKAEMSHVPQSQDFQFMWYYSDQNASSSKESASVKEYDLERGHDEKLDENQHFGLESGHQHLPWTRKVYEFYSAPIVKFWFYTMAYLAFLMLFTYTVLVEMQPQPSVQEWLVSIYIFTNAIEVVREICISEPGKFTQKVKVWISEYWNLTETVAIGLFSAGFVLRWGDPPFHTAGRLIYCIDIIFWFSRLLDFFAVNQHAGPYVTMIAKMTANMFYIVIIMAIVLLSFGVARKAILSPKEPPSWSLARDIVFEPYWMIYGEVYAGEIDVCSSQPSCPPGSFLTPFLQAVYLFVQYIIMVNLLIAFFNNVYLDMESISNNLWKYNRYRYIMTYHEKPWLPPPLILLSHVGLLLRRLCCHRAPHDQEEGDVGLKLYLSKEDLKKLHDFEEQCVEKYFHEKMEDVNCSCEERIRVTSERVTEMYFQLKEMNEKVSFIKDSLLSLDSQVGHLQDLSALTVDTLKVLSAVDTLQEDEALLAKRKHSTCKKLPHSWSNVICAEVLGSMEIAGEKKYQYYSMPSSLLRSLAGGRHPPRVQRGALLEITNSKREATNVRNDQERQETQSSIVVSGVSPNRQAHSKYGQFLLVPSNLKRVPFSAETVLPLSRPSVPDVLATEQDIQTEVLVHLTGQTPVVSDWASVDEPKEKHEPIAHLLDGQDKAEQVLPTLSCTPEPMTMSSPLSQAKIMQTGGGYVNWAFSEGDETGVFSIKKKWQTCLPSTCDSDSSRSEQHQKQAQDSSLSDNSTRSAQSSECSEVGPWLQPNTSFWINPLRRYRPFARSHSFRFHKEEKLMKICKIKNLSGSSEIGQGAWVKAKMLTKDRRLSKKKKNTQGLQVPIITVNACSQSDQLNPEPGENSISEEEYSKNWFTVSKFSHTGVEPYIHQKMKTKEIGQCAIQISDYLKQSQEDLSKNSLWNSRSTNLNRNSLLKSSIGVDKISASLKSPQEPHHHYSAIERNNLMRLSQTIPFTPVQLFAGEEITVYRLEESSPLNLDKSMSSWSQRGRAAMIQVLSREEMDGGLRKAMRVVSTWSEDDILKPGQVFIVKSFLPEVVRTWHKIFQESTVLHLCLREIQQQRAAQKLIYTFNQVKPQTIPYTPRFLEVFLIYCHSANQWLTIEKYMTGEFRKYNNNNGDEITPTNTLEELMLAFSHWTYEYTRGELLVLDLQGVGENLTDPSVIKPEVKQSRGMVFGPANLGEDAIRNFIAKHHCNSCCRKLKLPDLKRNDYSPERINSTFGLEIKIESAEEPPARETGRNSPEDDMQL

ULK1 (human) = ULK1 (human) (UniProt O75385)
[1] = tested on: PIK3CA (human), P42336 [H1047L]
CAMK4 (human) = CAMK4 (human) (UniProt Q16566)
STK10 (human) = STK10 (human) (UniProt O94804)
MYO3B (human) = MYO3B (human) (UniProt Q8WXR4)
TGFBR1 (human) = TGFBR1 (human) (UniProt P36897)
TYRO3 (human) = TYRO3 (human) (UniProt Q06418)
Sequence of TYRO3 (human) (Q06418 whole entry, looked up): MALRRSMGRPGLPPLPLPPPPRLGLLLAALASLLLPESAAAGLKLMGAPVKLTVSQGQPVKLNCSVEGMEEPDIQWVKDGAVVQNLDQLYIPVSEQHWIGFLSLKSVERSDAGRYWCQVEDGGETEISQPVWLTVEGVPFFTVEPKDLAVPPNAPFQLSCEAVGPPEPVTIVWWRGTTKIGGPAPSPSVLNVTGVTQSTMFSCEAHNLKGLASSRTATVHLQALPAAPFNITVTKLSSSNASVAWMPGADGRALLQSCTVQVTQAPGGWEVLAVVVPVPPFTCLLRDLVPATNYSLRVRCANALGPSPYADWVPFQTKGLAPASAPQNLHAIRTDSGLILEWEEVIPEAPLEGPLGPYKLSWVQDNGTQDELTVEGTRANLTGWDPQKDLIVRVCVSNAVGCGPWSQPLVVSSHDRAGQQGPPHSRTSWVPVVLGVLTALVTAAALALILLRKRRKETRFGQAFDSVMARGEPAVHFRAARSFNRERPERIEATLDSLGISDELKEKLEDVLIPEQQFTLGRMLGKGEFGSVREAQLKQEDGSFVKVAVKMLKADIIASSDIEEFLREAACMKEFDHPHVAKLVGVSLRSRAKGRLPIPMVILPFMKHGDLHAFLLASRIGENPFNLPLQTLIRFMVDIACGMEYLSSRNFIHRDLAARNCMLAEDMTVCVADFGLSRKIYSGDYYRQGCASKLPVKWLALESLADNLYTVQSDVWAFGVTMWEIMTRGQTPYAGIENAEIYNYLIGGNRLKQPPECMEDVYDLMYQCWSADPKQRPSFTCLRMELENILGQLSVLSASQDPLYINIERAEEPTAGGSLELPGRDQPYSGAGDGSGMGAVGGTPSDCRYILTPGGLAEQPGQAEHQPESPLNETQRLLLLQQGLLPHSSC

MERTK (human) = MERTK (human) (UniProt Q12866)
[2] = tested on: KIT (human), P10721 [D816H]
MYLK4 (human) = MYLK4 (human) (UniProt Q86YV6)
ICK (human) = ICK (human) (UniProt Q9UPZ9)
Sequence of ICK (human) (Q9UPZ9 whole entry, looked up): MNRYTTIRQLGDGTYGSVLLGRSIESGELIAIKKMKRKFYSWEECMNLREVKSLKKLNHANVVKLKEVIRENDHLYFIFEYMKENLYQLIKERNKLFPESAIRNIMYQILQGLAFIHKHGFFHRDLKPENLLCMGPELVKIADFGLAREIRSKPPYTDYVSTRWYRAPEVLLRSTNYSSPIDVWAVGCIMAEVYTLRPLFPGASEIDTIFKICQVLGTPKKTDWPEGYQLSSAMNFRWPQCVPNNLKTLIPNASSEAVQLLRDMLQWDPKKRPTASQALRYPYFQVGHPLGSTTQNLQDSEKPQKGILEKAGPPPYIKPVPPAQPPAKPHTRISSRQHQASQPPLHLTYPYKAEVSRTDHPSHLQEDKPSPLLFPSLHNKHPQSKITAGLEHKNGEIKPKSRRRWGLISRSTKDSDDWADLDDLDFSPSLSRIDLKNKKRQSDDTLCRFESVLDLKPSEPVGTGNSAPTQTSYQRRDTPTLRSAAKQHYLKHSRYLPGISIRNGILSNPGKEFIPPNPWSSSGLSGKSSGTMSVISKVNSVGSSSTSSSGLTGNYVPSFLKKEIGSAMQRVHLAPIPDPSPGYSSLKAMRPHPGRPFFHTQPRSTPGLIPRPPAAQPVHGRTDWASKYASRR

MAP3K2 (human) = MAP3K2 (human) (UniProt Q9Y2U5)
STK38 (human) = STK38 (human) (UniProt Q15208)
TGFBR2 (human) = TGFBR2 (human) (UniProt P37173)
ERBB2 (human) = ERBB2 (human) (UniProt P04626)
PAK4 (human) = PAK4 (human) (UniProt O96013)
BLK (human) = BLK (human) (UniProt P51451)
SRMS (human) = SRMS (human) (UniProt Q9H3Y6)
PIM2 (human) = PIM2 (human) (UniProt Q9P1W9)
IGF1R (human) = IGF1R (human) (UniProt P08069)
MYLK (human) = MYLK (human) (UniProt Q15746)
[3] = tested on: EGFR (human), P00533 [G719C]

Sequence of TXK (human) (P42681 whole entry, looked up): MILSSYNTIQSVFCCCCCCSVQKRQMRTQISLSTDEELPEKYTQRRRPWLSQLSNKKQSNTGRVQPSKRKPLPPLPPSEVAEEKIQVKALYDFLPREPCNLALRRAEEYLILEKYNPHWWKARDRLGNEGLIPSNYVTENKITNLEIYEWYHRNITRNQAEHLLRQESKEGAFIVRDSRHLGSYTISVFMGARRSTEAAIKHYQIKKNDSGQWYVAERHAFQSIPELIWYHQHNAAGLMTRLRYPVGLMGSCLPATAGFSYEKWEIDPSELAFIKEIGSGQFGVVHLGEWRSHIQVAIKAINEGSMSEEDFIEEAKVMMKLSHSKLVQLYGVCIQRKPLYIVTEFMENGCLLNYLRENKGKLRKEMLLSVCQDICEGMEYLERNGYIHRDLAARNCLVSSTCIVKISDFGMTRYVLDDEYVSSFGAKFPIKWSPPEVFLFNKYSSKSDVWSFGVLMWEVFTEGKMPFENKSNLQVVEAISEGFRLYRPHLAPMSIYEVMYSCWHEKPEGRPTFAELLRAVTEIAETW

N#C/C(=C1/Nc2ccccc2S1)c1ccnc(NCCc2cccnc2)n1
kinase still bound, per cent of control (NEK2 (human)): 96%
kinase still bound, per cent of control (TXK (human)): 61%
kinase still bound, per cent of control (TAOK1 (human)): 38%
kinase still bound, per cent of control (MAPK3 (human)): 100%
kinase still bound, per cent of control (FRK (human)): 100%
kinase still bound, per cent of control (GRK7 (human)): 47%
kinase still bound, per cent of control (RPS6KA2 KD2 (human)): 56%
kinase still bound, per cent of control (FGFR2 (human)): 100%
kinase still bound, per cent of control (FGR (human)): 100%
kinase still bound, per cent of control (ROCK2 (human)): 23%
kinase still bound, per cent of control (MST1R (human)): 100%
kinase still bound, per cent of control (PTK2B (human)): 89%
kinase still bound, per cent of control (MAST1 (human)): 100%
kinase still bound, per cent of control (MAP4K4 (human)): 93%
kinase still bound, per cent of control (TAOK2 (human)): 45%
kinase still bound, per cent of control (MUSK (human)): 100%
kinase still bound, per cent of control (PI4KB (human)): 20%
kinase still bound, per cent of control (TRPM6 (human)): 100%
kinase still bound, per cent of control (ULK1 (human)): 36%
kinase still bound, per cent of control [1]: 85%
kinase still bound, per cent of control (CAMK4 (human)): 100%
kinase still bound, per cent of control (STK10 (human)): 100%
kinase still bound, per cent of control (MYO3B (human)): 100%
kinase still bound, per cent of control (TGFBR1 (human)): 100%
kinase still bound, per cent of control (TYRO3 (human)): 100%
kinase still bound, per cent of control (MERTK (human)): 100%
kinase still bound, per cent of control [2]: 72%
kinase still bound, per cent of control (MYLK4 (human)): 16%
kinase still bound, per cent of control (ICK (human)): 64%
kinase still bound, per cent of control (MAP3K2 (human)): 100%
kinase still bound, per cent of control (STK38 (human)): 91%
kinase still bound, per cent of control (TGFBR2 (human)): 100%
kinase still bound, per cent of control (ERBB2 (human)): 8.5%
kinase still bound, per cent of control (PAK4 (human)): 78%
kinase still bound, per cent of control (BLK (human)): 100%
kinase still bound, per cent of control (SRMS (human)): 2.4%
kinase still bound, per cent of control (PIM2 (human)): 20%
kinase still bound, per cent of control (IGF1R (human)): 100%
kinase still bound, per cent of control (MYLK (human)): 66%

COc1cc2c(Nc3ccc(NC(=O)c4ccccc4)cc3)ncnc2cc1OCCCN1CCOCC1
kinase still bound, per cent of control (NEK2 (human)): 51%
kinase still bound, per cent of control (TXK (human)): 99%
kinase still bound, per cent of control (TAOK1 (human)): 95%
kinase still bound, per cent of control (MAPK3 (human)): 100%
kinase still bound, per cent of control (FRK (human)): 82%
kinase still bound, per cent of control (GRK7 (human)): 71%
kinase still bound, per cent of control (RPS6KA2 KD2 (human)): 100%
kinase still bound, per cent of control (FGFR2 (human)): 89%
kinase still bound, per cent of control (FGR (human)): 19%
kinase still bound, per cent of control (ROCK2 (human)): 34%
kinase still bound, per cent of control (MST1R (human)): 3.9%
kinase still bound, per cent of control (PTK2B (human)): 98%
kinase still bound, per cent of control (MAST1 (human)): 100%
kinase still bound, per cent of control (TAOK2 (human)): 94%
kinase still bound, per cent of control (MUSK (human)): 100%
kinase still bound, per cent of control (PI4KB (human)): 100%
kinase still bound, per cent of control (TRPM6 (human)): 98%
kinase still bound, per cent of control (ULK1 (human)): 48%
kinase still bound, per cent of control [1]: 99%
kinase still bound, per cent of control (CAMK4 (human)): 100%
kinase still bound, per cent of control (STK10 (human)): 0.15%
kinase still bound, per cent of control (MYO3B (human)): 100%
kinase still bound, per cent of control (TGFBR1 (human)): 100%
kinase still bound, per cent of control (TYRO3 (human)): 60%
kinase still bound, per cent of control (MERTK (human)): 2.4%
kinase still bound, per cent of control [2]: 69%
kinase still bound, per cent of control (MYLK4 (human)): 100%
kinase still bound, per cent of control (ICK (human)): 100%
kinase still bound, per cent of control (MAP3K2 (human)): 28%
kinase still bound, per cent of control (STK38 (human)): 92%
kinase still bound, per cent of control (TGFBR2 (human)): 82%
kinase still bound, per cent of control (ERBB2 (human)): 0%
kinase still bound, per cent of control (PAK4 (human)): 100%
kinase still bound, per cent of control [3]: 0.45%
kinase still bound, per cent of control (BLK (human)): 0.5%
kinase still bound, per cent of control (SRMS (human)): 2.4%
kinase still bound, per cent of control (PIM2 (human)): 100%
kinase still bound, per cent of control (IGF1R (human)): 100%
kinase still bound, per cent of control (MYLK (human)): 92%

CCN(CCO)CCCOc1ccc2c(Nc3cc(CC(=O)Nc4cccc(F)c4)[nH]n3)ncnc2c1
kinase still bound, per cent of control (NEK2 (human)): 83%
kinase still bound, per cent of control (TXK (human)): 100%
kinase still bound, per cent of control (TAOK1 (human)): 59%
kinase still bound, per cent of control (MAPK3 (human)): 100%
kinase still bound, per cent of control (FRK (human)): 90%
kinase still bound, per cent of control (GRK7 (human)): 54%
kinase still bound, per cent of control (RPS6KA2 KD2 (human)): 77%
kinase still bound, per cent of control (FGFR2 (human)): 80%
kinase still bound, per cent of control (FGR (human)): 82%
kinase still bound, per cent of control (ROCK2 (human)): 66%
kinase still bound, per cent of control (MST1R (human)): 25%
kinase still bound, per cent of control (PTK2B (human)): 100%
kinase still bound, per cent of control (MAST1 (human)): 90%
kinase still bound, per cent of control (MAP4K4 (human)): 98%
kinase still bound, per cent of control (TAOK2 (human)): 98%
kinase still bound, per cent of control (MUSK (human)): 3.3%
kinase still bound, per cent of control (PI4KB (human)): 100%
kinase still bound, per cent of control (TRPM6 (human)): 100%
kinase still bound, per cent of control (ULK1 (human)): 76%
kinase still bound, per cent of control [1]: 73%
kinase still bound, per cent of control (CAMK4 (human)): 100%
kinase still bound, per cent of control (STK10 (human)): 11%
kinase still bound, per cent of control (MYO3B (human)): 100%
kinase still bound, per cent of control (TGFBR1 (human)): 98%
kinase still bound, per cent of control (TYRO3 (human)): 100%
kinase still bound, per cent of control (MERTK (human)): 77%
kinase still bound, per cent of control [2]: 34%
kinase still bound, per cent of control (ICK (human)): 74%
kinase still bound, per cent of control (MAP3K2 (human)): 87%
kinase still bound, per cent of control (STK38 (human)): 56%
kinase still bound, per cent of control (TGFBR2 (human)): 100%
kinase still bound, per cent of control (ERBB2 (human)): 13%
kinase still bound, per cent of control (PAK4 (human)): 100%
kinase still bound, per cent of control (BLK (human)): 9.6%
kinase still bound, per cent of control (SRMS (human)): 29%
kinase still bound, per cent of control (PIM2 (human)): 100%
kinase still bound, per cent of control (IGF1R (human)): 100%
kinase still bound, per cent of control (MYLK (human)): 80%
